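GI50: concentration for 50% inhibition of growth. At the TGI there is no net growth.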
What was measured:
Assay in all cases: growth of human tumour cells (NCI), 384-well format
786-0 renal = tested on: 786-0 renal
A498 renal = tested on: A498 renal
A549 NSCLC = tested on: A549 NSCLC
ACHN renal = tested on: ACHN renal
BT-549 breast = tested on: BT-549 breast
CCRF-CEM leukemia = tested on: CCRF-CEM leukemia
COLO 205 colon = tested on: COLO 205 colon
DU-145 prostate = tested on: DU-145 prostate
HCC-2998 colon = tested on: HCC-2998 colon
HCT-116 colon = tested on: HCT-116 colon
HCT-15 colon = tested on: HCT-15 colon
HL-60(TB) leukemia = tested on: HL-60(TB) leukemia
HOP-62 NSCLC = tested on: HOP-62 NSCLC
HOP-92 NSCLC = tested on: HOP-92 NSCLC
HT29 colon = tested on: HT29 colon
IGROV1 ovarian = tested on: IGROV1 ovarian
K-562 leukemia = tested on: K-562 leukemia
KM12 colon = tested on: KM12 colon
LOX IMVI melanoma = tested on: LOX IMVI melanoma
MALME-3M melanoma = tested on: MALME-3M melanoma
MCF7 breast = tested on: MCF7 breast
MDA-MB-231 breast = tested on: MDA-MB-231 breast
MDA-MB-435 melanoma = tested on: MDA-MB-435 melanoma
MDA-MB-468 breast = tested on: MDA-MB-468 breast
MOLT-4 leukemia = tested on: MOLT-4 leukemia
NCI-H226 lung = tested on: NCI-H226 lung
NCI-H23 lung = tested on: NCI-H23 lung
NCI-H322M lung = tested on: NCI-H322M lung
NCI-H460 NSCLC = tested on: NCI-H460 NSCLC
NCI-H522 lung = tested on: NCI-H522 lung
NCI/ADR-RES ovarian = tested on: NCI/ADR-RES ovarian
OVCAR-3 ovarian = tested on: OVCAR-3 ovarian
OVCAR-4 ovarian = tested on: OVCAR-4 ovarian
OVCAR-5 ovarian = tested on: OVCAR-5 ovarian
OVCAR-8 ovarian = tested on: OVCAR-8 ovarian
PC-3 prostate = tested on: PC-3 prostate
RPMI-8226 leukemia = tested on: RPMI-8226 leukemia
RXF 393 renal = tested on: RXF 393 renal
SF-295 CNS = tested on: SF-295 CNS
SF-539 CNS = tested on: SF-539 CNS
SK-MEL-2 melanoma = tested on: SK-MEL-2 melanoma
SK-MEL-28 melanoma = tested on: SK-MEL-28 melanoma
SK-MEL-5 melanoma = tested on: SK-MEL-5 melanoma
SK-OV-3 ovarian = tested on: SK-OV-3 ovarian
SN12C renal = tested on: SN12C renal
SNB-19 CNS = tested on: SNB-19 CNS
SR leukemia = tested on: SR leukemia
SW-620 colon = tested on: SW-620 colon
T-47D breast = tested on: T-47D breast
TK-10 renal = tested on: TK-10 renal
U251 glioblastoma = tested on: U251 glioblastoma
UACC-257 melanoma = tested on: UACC-257 melanoma
UACC-62 melanoma = tested on: UACC-62 melanoma
UO-31 renal = tested on: UO-31 renal
CAKI-1 renal = tested on: CAKI-1 renal
EKVX NSCLC = tested on: EKVX NSCLC
HS 578T breast = tested on: HS 578T breast
M14 melanoma = tested on: M14 melanoma
SF-268 CNS = tested on: SF-268 CNS
SNB-75 CNS = tested on: SNB-75 CNS

## Cc1sc2c(c1C)C(c1ccc(Cl)cc1)=N[C@@H](CC(=O)Nc1ccc(OCCOCCOCCOCCNc3cccc4c3C(=O)N(C3CCC(=O)NC3=O)C4=O)cc1)c1nnc(C)n1-2 (some centres undefined)
786-0 renal
  GI50: 0.0444 µM
  TGI: 0.81 µM
A498 renal
  GI50: 0.166 µM
  TGI: > 100 µM
A549 NSCLC
  GI50: 0.0361 µM
  TGI: > 100 µM
ACHN renal
  GI50: 0.534 µM
  TGI: > 100 µM
BT-549 breast
  GI50: < 0.01 µM
  TGI: < 0.01 µM
CCRF-CEM leukemia
  GI50: < 0.01 µM
  TGI: 0.0119 µM
COLO 205 colon
  GI50: 0.0107 µM
  TGI: 0.0446 µM
DU-145 prostate
  GI50: 0.624 µM
  TGI: 16.1 µM
HCC-2998 colon
  GI50: < 0.01 µM
  TGI: 0.0217 µM
HCT-116 colon
  GI50: 0.0568 µM
  TGI: 13.6 µM
HCT-15 colon
  GI50: 0.121 µM
  TGI: 0.278 µM
HL-60(TB) leukemia
  GI50: < 0.01 µM
  TGI: < 0.01 µM
HOP-62 NSCLC
  GI50: 0.0224 µM
  TGI: 0.0755 µM
HOP-92 NSCLC
  GI50: 0.0253 µM
  TGI: 0.291 µM
HT29 colon
  GI50: 0.106 µM
  TGI: 0.434 µM
IGROV1 ovarian
  GI50: 0.0265 µM
  TGI: 0.123 µM
K-562 leukemia
  GI50: 0.054 µM
  TGI: 87.1 µM
KM12 colon
  GI50: 0.0374 µM
  TGI: > 100 µM
LOX IMVI melanoma
  GI50: 0.0684 µM
  TGI: 0.203 µM
MALME-3M melanoma
  GI50: 0.133 µM
  TGI: 0.326 µM
MCF7 breast
  GI50: < 0.01 µM
  TGI: 0.0403 µM
MDA-MB-231 breast
  GI50: < 0.01 µM
  TGI: 0.024 µM
MDA-MB-435 melanoma
  GI50: 0.0316 µM
  TGI: 0.166 µM
MDA-MB-468 breast
  GI50: 0.0152 µM
  TGI: 0.0399 µM
MOLT-4 leukemia
  GI50: < 0.01 µM
  TGI: 0.0198 µM
NCI-H226 lung
  GI50: 0.0315 µM
  TGI: 0.131 µM
NCI-H23 lung
  GI50: 0.182 µM
  TGI: 0.443 µM
NCI-H322M lung
  GI50: 0.0164 µM
  TGI: 0.0789 µM
NCI-H460 NSCLC
  GI50: 0.38 µM
  TGI: > 100 µM
NCI-H522 lung
  GI50: 0.0371 µM
  TGI: 0.182 µM
NCI/ADR-RES ovarian
  GI50: 21.8 µM
  TGI: > 100 µM
OVCAR-3 ovarian
  GI50: 0.0691 µM
  TGI: 0.431 µM
OVCAR-4 ovarian
  GI50: 0.0152 µM
  TGI: 0.0341 µM
OVCAR-5 ovarian
  GI50: 0.0428 µM
  TGI: 1.47 µM
OVCAR-8 ovarian
  GI50: < 0.01 µM
  TGI: 0.0187 µM
PC-3 prostate
  GI50: 0.0153 µM
  TGI: > 100 µM
RPMI-8226 leukemia
  GI50: < 0.01 µM
  TGI: < 0.01 µM
RXF 393 renal
  GI50: 0.0349 µM
  TGI: 0.0962 µM
SF-295 CNS
  GI50: 0.131 µM
  TGI: 0.55 µM
SF-539 CNS
  GI50: 0.0904 µM
  TGI: 1.12 µM
SK-MEL-2 melanoma
  GI50: < 0.01 µM
  TGI: 0.0255 µM
SK-MEL-28 melanoma
  GI50: 0.13 µM
  TGI: 0.799 µM
SK-MEL-5 melanoma
  GI50: 0.03 µM
  TGI: 0.118 µM
SK-OV-3 ovarian
  GI50: 0.0765 µM
  TGI: 0.228 µM
SN12C renal
  GI50: 0.0376 µM
  TGI: > 100 µM
SNB-19 CNS
  GI50: 0.0516 µM
  TGI: > 100 µM
SR leukemia
  GI50: 0.0194 µM
  TGI: 0.069 µM
SW-620 colon
  GI50: 0.0335 µM
  TGI: > 100 µM
T-47D breast
  GI50: < 0.01 µM
  TGI: < 0.01 µM
TK-10 renal
  GI50: 0.19 µM
  TGI: > 100 µM
U251 glioblastoma
  GI50: 0.186 µM
  TGI: 80.1 µM
UACC-257 melanoma
  GI50: 0.179 µM
  TGI: 28.2 µM
UACC-62 melanoma
  GI50: 0.0347 µM
  TGI: 0.162 µM
UO-31 renal
  GI50: 0.305 µM
  TGI: > 100 µM

## O=C(N[C@@H](Cc1coc2ccccc12)B(O)O)[C@@H]1C[C@H]2CC[C@@H]1O2
786-0 renal
  GI50: 2.74 µM
  TGI: 13.9 µM
A498 renal
  GI50: 1.62 µM
  TGI: 5.91 µM
A549 NSCLC
  GI50: 10.7 µM
  TGI: > 100 µM
ACHN renal
  GI50: 1.09 µM
  TGI: > 100 µM
BT-549 breast
  GI50: 2.26 µM
  TGI: 5.49 µM
CAKI-1 renal
  GI50: 3.24 µM
  TGI: > 100 µM
CCRF-CEM leukemia
  GI50: 0.197 µM
  TGI: 0.504 µM
COLO 205 colon
  GI50: 21.2 µM
  TGI: > 100 µM
DU-145 prostate
  GI50: 4.28 µM
  TGI: > 100 µM
EKVX NSCLC
  GI50: 6.89 µM
  TGI: 91.9 µM
HCC-2998 colon
  GI50: 4.45 µM
  TGI: 20.9 µM
HCT-116 colon
  GI50: 2.08 µM
  TGI: 8.46 µM
HCT-15 colon
  GI50: 4.26 µM
  TGI: 15.3 µM
HL-60(TB) leukemia
  GI50: 0.355 µM
  TGI: 1.36 µM
HOP-62 NSCLC
  GI50: 3.87 µM
  TGI: 17.1 µM
HOP-92 NSCLC
  GI50: 13.9 µM
  TGI: 77.7 µM
HS 578T breast
  GI50: 1.8 µM
  TGI: 3.69 µM
HT29 colon
  GI50: 1.83 µM
  TGI: 4.44 µM
IGROV1 ovarian
  GI50: 18.6 µM
  TGI: 92.1 µM
K-562 leukemia
  GI50: 7.21 µM
  TGI: > 100 µM
KM12 colon
  GI50: 5.64 µM
  TGI: 23.2 µM
LOX IMVI melanoma
  GI50: 3.99 µM
  TGI: 16.8 µM
M14 melanoma
  GI50: 2.73 µM
  TGI: 9.07 µM
MALME-3M melanoma
  GI50: 1.17 µM
  TGI: 3.19 µM
MCF7 breast
  GI50: 1.68 µM
  TGI: > 100 µM
MDA-MB-231 breast
  GI50: 4.86 µM
  TGI: 23.3 µM
MDA-MB-435 melanoma
  GI50: 1.45 µM
  TGI: 2.99 µM
MDA-MB-468 breast
  GI50: 2.29 µM
  TGI: 9.43 µM
MOLT-4 leukemia
  GI50: 0.277 µM
  TGI: 1.13 µM
NCI-H226 lung
  GI50: 0.163 µM
  TGI: 0.439 µM
NCI-H23 lung
  GI50: 3.7 µM
  TGI: 27.3 µM
NCI-H322M lung
  GI50: 44.8 µM
  TGI: > 100 µM
NCI-H460 NSCLC
  GI50: 16.7 µM
  TGI: > 100 µM
NCI-H522 lung
  GI50: 2 µM
  TGI: 4.74 µM
NCI/ADR-RES ovarian
  GI50: 34.8 µM
  TGI: > 100 µM
OVCAR-3 ovarian
  GI50: 1.38 µM
  TGI: 3.8 µM
OVCAR-4 ovarian
  GI50: 7.3 µM
  TGI: 60.6 µM
OVCAR-5 ovarian
  GI50: 8.44 µM
  TGI: > 100 µM
OVCAR-8 ovarian
  GI50: 30.9 µM
  TGI: > 100 µM
PC-3 prostate
  GI50: 27.6 µM
  TGI: > 100 µM
RPMI-8226 leukemia
  GI50: 0.173 µM
  TGI: 0.359 µM
RXF 393 renal
  GI50: 1.22 µM
  TGI: 2.91 µM
SF-268 CNS
  GI50: 2.45 µM
  TGI: 7.43 µM
SF-295 CNS
  GI50: 1.49 µM
  TGI: 4.35 µM
SF-539 CNS
  GI50: 1.51 µM
  TGI: 2.92 µM
SK-MEL-28 melanoma
  GI50: 1.33 µM
  TGI: 4.17 µM
SK-MEL-5 melanoma
  GI50: 2.36 µM
  TGI: 7.59 µM
SK-OV-3 ovarian
  GI50: 4.71 µM
  TGI: 55.7 µM
SN12C renal
  GI50: 10.7 µM
  TGI: > 100 µM
SNB-19 CNS
  GI50: 4.7 µM
  TGI: 23.1 µM
SNB-75 CNS
  GI50: 2.99 µM
  TGI: 11.2 µM
SR leukemia
  GI50: 0.219 µM
  TGI: 0.605 µM
SW-620 colon
  GI50: 1.81 µM
  TGI: 3.83 µM
T-47D breast
  GI50: 5.11 µM
  TGI: 45.8 µM
TK-10 renal
  GI50: 1.84 µM
  TGI: 4.86 µM
U251 glioblastoma
  GI50: 14.8 µM
  TGI: 52.5 µM
UACC-257 melanoma
  GI50: 1.44 µM
  TGI: 5.25 µM
UO-31 renal
  GI50: 3.36 µM
  TGI: 13.4 µM

— PubChem BioAssay (NCI)
